Data taken from PubChem BioAssay (NCI).
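Following 48 hours of exposure in 96-well plates, responses at five concentrations were used to interpolate endpoints linearly. Definition used: TGI = concentration required for complete inhibition of growth.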

Tests used:
Experiment in all cases: NCI anticancer screen, dose series, 48 h
[1] = system: A549 NSCLC
[2] = system: 786-0 renal
[3] = system: NCI-H226 lung
[4] = system: OVCAR-3 ovarian
[5] = system: HCT-116 colon
[6] = system: SN12C renal
[7] = system: MCF7 breast
[8] = system: HT29 colon
[9] = system: EKVX NSCLC
[10] = system: SF-268 CNS

SMILES | TGI [1] [µM] | TGI [2] [µM] | TGI [3] [µM] | TGI [4] [µM] | TGI [5] [µM] | TGI [6] [µM] | TGI [7] [µM] | TGI [8] [µM] | TGI [9] [µM] | TGI [10] [µM]
C=C(C)[C@@H]1CC[C@]2(CO)CC[C@]3(C)[C@H](CC[C@@H]4[C@@]5(C)CC[C@H](O)C(C)(C)[C@@H]5CC[C@]43C)[C@@H]12 | 26.9 | 27.1 | > 100 | 66.4 | > 100 | 69.6 | 45.5 | 48.6 | 87.6 | > 100
CN(C)NC1=NS(=O)(=O)c2cc3c(cc2S1)N(N(C)C)C(=O)c1cc2c(cc1N(N(C)C)C3=O)SC(NN(C)C)=NS2(=O)=O | > 10 | > 10 | > 10 | > 10 | > 10 | > 10 | > 10 | > 10 | > 10 | > 10
CC1(C)C2CCC1(C)C(N/C(=C(/C(Cl)=C(Cl)Cl)[N+](=O)[O-])n1nnc3ccccc31)C2 (stereo not given) | > 100 | > 100 | 50.3 | 32.6 | > 100 | > 100 | > 100 | > 100 | > 100 | 37.9
COc1ccc(C[C@H]2NC(=O)/C=C/C[C@@H]([C@H](C)[C@H]3O[C@@H]3c3ccccc3)OC(=O)[C@H](CC(C)C)OC(=O)[C@H](C)CNC2=O)cc1 | > 0.0001 | > 0.0001 | > 7.26e-05 | > 0.0001 | > 0.0001 | > 0.0001 | > 0.0001 | > 6.54e-05 | > 9.66e-05 | > 0.0001
O=C(O)CS(=O)c1ccc2c3c(cccc13)C(=O)c1ccccc1-2 (stereo not given) | > 100 | > 100 | > 100 | > 100 | > 100 | > 100 | > 100 | > 100 | > 100 | > 100
COc1ccccc1C1=C2C(=O)N(C)C(c3ccccc3OC)=C2C(=O)N1C | > 100 | 85.5 | > 100 | > 100 | > 100 | > 100 | > 100 | > 100 | > 100 | > 100
COc1cc2c(cc1OC)C1=Cc3ccc(OC)c(OC)c3C(C#N)N1CC2 (stereo not given) | > 100 | > 100 | > 100 | > 100 | > 100 | > 100 | > 100 | > 100 | > 100 | > 100
O=C1OC(C2Cc3ccccc3C2=O)c2ccccc21 (stereo not given) | > 100 | > 100 | > 100 | > 100 | > 100 | > 100 | > 100 | 60.5 | > 100 | > 100
O=C(O)C(F)(F)C(F)(F)C(F)(F)C(F)(F)C(=O)O | > 100 | > 100 | > 100 | > 100 | > 100 | > 100 | > 100 | > 100 | > 100 | > 100
CN1[C@@H]2CCCC[C@H]2N(C)P1(=O)C(O)/C=C/c1ccccc1 (stereo not given in full) | > 100 | > 100 | > 100 | > 100 | > 100 | > 100 | > 100 | > 100 | > 100 | > 100
O=C(Nc1ccccc1)c1cc(S(=O)(=O)Nc2n[nH]c(=O)[nH]2)c(SSc2cc(Cl)c(C(=O)Nc3ccccc3)cc2S(=O)(=O)Nc2n[nH]c(=O)[nH]2)cc1Cl | > 100 | > 100 | > 100 | > 100 | > 100 | > 100 | > 100 | > 100 | > 100 | > 100
Cc1ccc(S(=O)(=O)N(CC(O)c2ccccc2)c2ccccc2F)cc1 (stereo not given) | 41.4 | 34.7 | 48.7 | 25 | 26.4 | 34.3 | 28 | 34.4 | > 100 | 31.1
Cc1ccc(C2(N3CCCC3)OC(C)(C)c3cccc4cccc2c34)cc1 (stereo not given) | 24.6 | 37.6 | 31.8 | 30.3 | 38.4 | 32.6 | 32.5 | 26.2 | 24 | 25.8
COc1ccc2c(c1)c(=O)c1c(NCCCN(C)CCCNc3ccc4c(=O)n(CCN(C)C)c(=O)n5c6ccc(OC)cc6c(=O)c3c45)ccc3c(=O)n(CCN(C)C)c(=O)n2c31 | 1.26 | 1.48 | 0.409 | 2.56 | 1.13 | 1.43 | 1.12 | 1.28 | 1.3 | 1.88
C/C=C1/CN2[C@@H](C3=C[C@@H]4[C@@H]5N(C3=O)c3ccccc3[C@@]53CCN5C/C(=C/C)[C@@H]4C[C@H]53)C[C@@]34c5ccccc5N5C(=O)CC=C([C@H]1C[C@H]23)[C@H]54 | 15.3 | 7.8 | 16.5 | 15.8 | 9.07 | 9.95 | 10.7 | 8.08 | 12.1 | 14.1
O=C1c2n[nH]nc2C(=O)c2n[nH]nc21 | > 100 | > 100 | > 100 | > 100 | > 100 | > 100 | > 100 | > 100 | > 100 | > 100

SMILES | TGI [1] [µM] | TGI [2] [µM] | TGI [3] [µM] | TGI [4] [µM] | TGI [5] [µM] | TGI [6] [µM] | TGI [7] [µM] | TGI [8] [µM] | TGI [9] [µM] | TGI [10] [µM]
Cc1ccccc1C(=O)C#Cc1cn(C2CC(O)C(CO)O2)c(=O)[nH]c1=O (stereo not given) | > 100 | > 100 | > 100 | > 100 | > 100 | > 100 | > 100 | > 100 | > 100 | > 100
O=C1c2cc([N+](=O)[O-])cnc2S(=O)(=O)N1c1ccc(Br)cc1 | > 100 | > 100 | > 100 | > 100 | > 100 | > 100 | > 100 | > 100 | > 100 | > 100
COc1ccc(OC)c(C(=O)/C=C/c2cc(O)c(O)cc2F)c1 | > 82.7 | 17.6 | 15.4 | 1.59 | 11.5 | 5.8 | 14.3 | 29.3 | > 77.4 | > 44.9
COc1ccc(C2c3cc4c(cc3OC(NNC(N)=O)C2C)OCO4)cc1 (stereo not given) | > 100 | 37.5 | > 76.2 | 14.3 | 21.5 | > 100 | > 100 | 17.2 | > 100 | > 100
N#Cc1ccc(/C=N/NC(=O)CSCC(=O)N/N=C/c2ccc(C#N)cc2)cc1 | > 100 | > 100 | > 100 | > 100 | > 100 | > 100 | > 100 | > 100 | > 100 | > 100
Nc1ccccc1/C=C\c1ccccc1 | > 100 | > 100 | > 100 | > 100 | > 100 | > 100 | > 100 | > 100 | > 100 | > 100
Cc1ccc2ccc(=O)oc2c1 | > 100 | > 100 | > 100 | > 100 | > 100 | > 100 | > 100 | > 100 | > 100 | > 100
NC(Cc1ccccc1)=NCC(=O)O | > 100 | > 100 | > 100 | > 100 | > 100 | > 100 | > 100 | > 100 | > 100 | > 100
Cc1ccc(C(=O)Cc2nc3ncccc3[nH]c2=O)cc1 | 26.7 | 45.3 | 66.5 | > 100 | 70.4 | > 100 | > 100 | > 100 | > 100 | 99.7
O=C(O)CCC(C(=O)O)N1C(=O)c2ccccc2C1=O (stereo not given) | > 100 | > 100 | > 100 | > 100 | > 100 | > 100 | > 100 | > 100 | > 100 | > 100
COc1ccc(/C=C2\Sc3nnc(C)n3N=C2c2cc(F)c(Cl)cc2Cl)cc1OC | 56.2 | 9.64 | 51.8 | 16 | 18.5 | 34.5 | 19.5 | 26.6 | 22.7 | 50.9
O=c1[nH]nc(Cc2ccccc2)n1/N=C/c1ccc([N+](=O)[O-])o1 | > 100 | 22.7 | 29.5 | 29.8 | 6.13 | 46 | > 100 | 18.9 | 16.7 | 11.7
CC(=O)N1CC(C)(C)c2c1cc(C)c(O)c2C | > 100 | > 100 | > 100 | > 100 | > 100 | > 100 | > 100 | > 100 | > 100 | > 100
CCOC(=O)c1[nH]cnc1/N=N/N(C)N | > 100 | > 100 | > 100 | > 100 | > 100 | > 100 | > 100 | > 100 | > 100 | > 100
COC(=O)c1ccc(CCC2=CC(=O)C(Br)=CC2=O)cc1 | 36.9 | 35.2 | 30.5 | 31.4 | 30.3 | 32.5 | 34.9 | 30.9 | 38.7 | 43
